Assay [1] addresses T1, BiP NBD (Homo sapiens, UniProt P11021). The assay can be described thus: Single turn-over assay (anion exchange quantification of ATP/ADP). The format is biochemical. Details: His6 (N, cleaved yes); made in house; host or cells: E. coli BL21-(DE3)-Lemo, pET28a vector. How it is done:
We next set out to benchmark these kinetic parameters to independently measured values. Out of the 11 free parameters of the functional cycle, 3 parameters can be commonly accessed with classical experiments (kcat, koff2 and koff5 ). We benchmarked kcat with standard single-turn over experiments[44],[46]. For these experiments, the NBD·ATP complex is initially formed by incubation of an excess of ATP with BiP NBD at 4 °C. At this temperature, it is generally assumed that the hydrolysis rate can be neglected. Unbound nucleotides were removed by gel filtration and the purified NBD·ATP complex was flash frozen. The complex was then incubated at 37 °C for variable time, after which the reaction was quenched by addition of HCl. This step unfolds the NBD, thus immediately stopping the reaction and releasing all educts and products into solution. From the resulting samples, the [ATP]/[ADP] ratio was determined by anion exchange chromatography.
The single turnover experiment starts from a batch of stoichiometrically assembled NBD^ATP complex. ATP hydrolysis and ATP dissociation occur on parallel kinetic pathways, according to Eqs. (1) and (2). At very low protein concentrations [NBD^ATP]≪KD1 , rebinding of ATP after dissociation, as well as the buildup of the products ADP and Pi, can be neglected and the observed ATP decay follows the analytical equation35 ATP/ATP0=koff1/kcat*+kcat/kcat*e^−kcat*t with36 kcat*=kcat+koff1
At proteins concentrations [NBD^ATP]≳KD1 , as it was used in our experiments, ATP rebinding after dissociation cannot be neglected, which is competitive with the product ADP that builds up over time. […]
The ATPase activity of BiP NBD was determined under single-turnover conditions as previously described with minor modifications of the protocol. The main modification was to replace the radioactivity-based detection by a label free anion-exchange based quantification. […] The relative ATP/ADP ratio was determined using an anion chromatography-based assay.

For assay [2], the target named is T1, BiP NBD. In words: Equilibrium 2D methyl-TROSY NMR fingerprint spectra with ligands (ATP analogs, calcium). The format is binding. Also noted: His6 (N, cleaved yes); made in house; host or cells: E. coli BL21-(DE3)-Lemo, pET28a vector. As to conditions: 3.3 mM calcium, 10 mM magnesium. Here is the method:
First, we probed calcium binding to ADP-bound NBD by NMR equilibrium experiments. […] (Supplementary Fig. 15d). […] (Supplementary Fig. 16).
AMPPNP (adenylyl imidodiphosphate; Jena-bioscience), AMPPCP (adenylyl methylenediphosphate; Jena-bioscience) and ATP-γ-S (adenosine 5’-(gamma-thiotriphosphate; Jena-bioscience) were dissolved in the HKM reaction buffer (25 mM HEPES, pH 7.5, 150 mM KCl and 10 mM MgCl2) at a concentration of 50 mM directly before to be mixed with the BiP NBD sample. Samples were prepared fresh before each use to minimize the known instability of these analogs that undergo slow hydrolysis in solution.
Supplementary Figure 7. Analysis of the BiP NBD ATP-bound state. a, Combined methyl chemical shift differences between the APD·Pi-bound and the ATP-bound state of BiP NBD in-cyclo. The magnitude of 1 and 1.5 SDs are indicated by an orange and a red line, respectively. b, Overlay of 9 crystal structures of BiP NBD in presence of different nucleotides (colored sticks). c, Backbone root means square deviation (RMSD - Å) between the structures shown in (b) and the NBD apo state (PDB 3LDN). d, 2D [13C,1H]-TROSY spectrum of methyl-labeled BiP NBD in equilibrium with the ATP analogs AMPPNP (green), AMPPCP (orange) or ATP-γ-S (yellow), overlayed with the spectrum in-cyclo (pink).
State- and sequence-specific resonance assignments are indicated for the ADP-bound (light blue), ADP·Pi-bound (dark blue) and the ATP-bound (red) states in-cyclo.
(1 picture or pasted object on this page, not shown here)
Supplementary Figure 15. Mapping of calcium binding to BiP NBD. a, Selected details from published structures of BiP. From left to right: yeast BiP(NBD)-Mg2+-ADP (PDB 3QFU), human BiP(NBD)-Mg2+- ADP·Pi (PDB 5EVZ), human BiP(NBD)-Ca2+-ADP (PDB 6ZYH). b, Selected sections of 2D [13C,1H]-methyl-TROSY spectra of residue val50cg1 or Ile52cd1 for the equilibrium experiments of NBD apo (grey), NBD with 5 mM Pi (green), NBD with 1 mM ADP (light blue), NBD with 1 mM ADP·Pi (dark blue), NBD with 1 mM ADP-Ca2+ (dark-pink).and NBD with 3.3 mM calcium ([Mg2+]/[Ca2+]=3) (light-pink). c, Combined methyl chemical shift differences between the BiP NBD APD and the ADP-Ca2+-bound state. The magnitude of 1 and 1.5 SDs are indicated by a light blue and a dark blue line. d, Structure of NBD in […]
the ADP-Ca-bound state (PDB 6ZYH).

Several values for one entry are separate records, joined by “and”; a condition that tells them apart may be missing. Equal entries are not always repeated.

T1 sequence (P11021 19-406): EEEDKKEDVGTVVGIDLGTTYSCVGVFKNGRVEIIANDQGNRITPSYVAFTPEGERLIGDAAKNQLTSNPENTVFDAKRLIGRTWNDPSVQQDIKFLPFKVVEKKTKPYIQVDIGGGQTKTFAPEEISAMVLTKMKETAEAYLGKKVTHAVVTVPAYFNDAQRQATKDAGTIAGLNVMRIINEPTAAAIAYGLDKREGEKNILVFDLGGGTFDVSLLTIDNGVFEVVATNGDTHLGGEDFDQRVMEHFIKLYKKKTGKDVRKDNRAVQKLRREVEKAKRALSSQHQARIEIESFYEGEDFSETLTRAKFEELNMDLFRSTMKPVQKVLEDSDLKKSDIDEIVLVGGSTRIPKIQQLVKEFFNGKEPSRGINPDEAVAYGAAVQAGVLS

With `Nc1ncnc2c1ncn2[C@@H]1O[C@H](COP(=O)(O)OP(=O)(O)OP(=O)(O)O)[C@@H](O)[C@H]1O` [ATP], the “kcat* (single turn-over)” value in assay [1] (37 °C, monoexponential fit) is 0.071 s⁻¹ and 0.071 ± 0.02 s⁻¹. Besides, the “kcat single turn-over average” value in assay [1] (Supplementary Fig 11b) came out at 0.071 s⁻¹. Moreover, in assay [1] (Supplementary Fig 11b, replicates [1]-[6]), the kcat single turn-over is 0.085 s⁻¹ and 0.070 s⁻¹ and 0.057 s⁻¹ and 0.075 s⁻¹ and 0.073 s⁻¹.

As for `[Ca+2]` [calcium], the “calcium binding to ADP-bound NBD (CSPs)” value in assay [2] is “calcium binding occurred”.

The values above are taken from PMC12126525, “Mechanism of ATP hydrolysis in the Hsp70 BiP nucleotide-binding domain” (Nature Communications, 2025).
